Experiment [1] concerns phenylquinone writhing in mice. In words: Phenylquinone Writhing Assay (analgesia). The experiment is classed as in vivo, mouse (Carworth CF1 male mice). Particulars: for responders at 100 mg/kg / responders at 25 mg/kg / responders at 50 mg/kg / responders at 30 mg/kg / responders at 70 mg/kg: Mus musculus, po, read-out: Phenylquinone Writhing Assay (% Control), percent analgesia; for responders at 30 mg/kg: 30 mg/kg oral; for responders at 70 mg/kg: 70 mg/kg oral. Here is the method: The phenylquinone writhing test was employed to evaluate analgesic activity according to the following procedure:
Phenylquinone (phenyl-p-benzoquinone, No. 7104, Eastman Organic Chemicals) is made up as a 0.02% aqueous solution in 5% ethyl alcohol. Phenylquinone solutions are made up fresh twice daily. Standard reference agents and the test compounds are dissolved or suspended in a 0.25% methylcellulose solution. A control group consisting of ten mice (Carworth CF1 male mice) are administered the 0.02% phenylquinone solution at a dose of 0.25 ml/mouse. The mice are housed individually and observed closely for ten minutes for exhibition of writhing. The onset of writhing occurs within three minutes and 100% of the mice must writhe within ten minutes. Test compounds are administered orally to groups of ten mice. The volume given is 0.01 ml/gram of body weight. Activity can be studied at 15, 30, 60, and 120 minutes after oral administration. After the designated time interval of a dose group has elapsed, the mice are challenged with phenylquinone intraperitoneally. Complete blocking of the writhing syndrom for the ten minute observation period in any one mouse is considered a positive analgesic response for that mouse. Conversely, if any mouse writhes definitely once it is considered not to be protected. The number of mice not writhing in group multiplied by ten equals percent analgesia for that dose at that time interval.
For orientation: An intraperitoneal irritant provokes the stretching counted in writhing tests.

Experiment [2] deals with carrageenin-induced edema in the hind paw of a rat. In words: Carrageenin Assay (carrageenin-induced edema, hind paw). The experiment is classed as in vivo, rat (male, Long Evans strain). Particulars: 1 h before carrageenin, edema at 3 h, compared to phenylbutazone control values; for inhibition in vivo at 100 mg/kg: 100 mg/kg oral; for inhibition in vivo at 175 mg/kg: 175 mg/kg oral. How it is done: The procedure employed is a modification of the method of Winter et al, Proc. Soc. Exptl. Biol. Med. 111:544 (1962). The device used for measurement of the paw volume is an adaptation of the water displacement procedure described by Adamkiewicz et al, Can. J. Biochem. Physiol. 33:332 (1955). Test compounds were administered orally, one hour prior to the intraplantar injection of 0.05 ml. of sterile 1.0 percent solution of carrageenin into the left hind paw of male rats (Long Evans strain) weighing between about 130-200 grams. At peak swelling time (3 hours) the volume of edema was calculated by differential paw volumes.
Table I sets forth the results obtained (indicated as percent reduction of edema compared to phenylbutazone control values) at the indicated dosages for each of the identified compounds.

Setting [3] is: 0.25 h, 100 mg/kg oral, 15 Min.
Setting [4] is: Rattus norvegicus, 200 mg/kg oral, read-out: % Reduction of Edema.
The mark [5] stands for this setting: Rattus norvegicus, read-out: % Reduction of Edema.

Like-named read-outs stand apart in the source and are kept apart here.

Take `COc1cc(-c2cnnc(SC)n2)ccc1O` [Example 32, 3-methylthio-5-(3'-methoxy-4'-hydroxyphenyl)-1,2,4-triazine]: the responders at 100 mg/kg in experiment [1] (setting [3]) stood at 30%; in experiment [1] (0.5 h, 100 mg/kg oral, 30 Min.), 10%; in experiment [1] (1 h, 100 mg/kg oral, 60 Min), 10%. Moreover, the inhibition in vivo at 200 mg/kg in experiment [2] (setting [4]) came out at 5%.
Regarding `CCC(=O)NNc1nncc(-c2ccc(Cl)cc2)n1` [Example 108, 3-propionylhydrazino-5-(4'-chlorophenyl)-1,2,4-triazine], the responders at 25 mg/kg was found to be 30% in experiment [1] (0.25 h, 25 mg/kg oral, 15 Min.); 50% in experiment [1] (0.5 h, 25 mg/kg oral, 30 Min.); 50% in experiment [1] (1 h, 25 mg/kg oral, 60 Min). Further, the inhibition in vivo at 100 mg/kg in experiment [2] (setting [5]) was 40%.
Consider `CSc1nncc(-c2cccs2)n1` [Example 6, 3-methylthio-5-(2'-thienyl)-1,2,4-triazine], for which the responders at 25 mg/kg in experiment [1] (0.25 h, 25 mg/kg oral, 15 Min.) came out at 20%. Besides, the responders at 50 mg/kg in experiment [1] (0.5 h, 50 mg/kg oral, 30 Min.) amounted to 70%. In addition, the inhibition in vivo at 200 mg/kg in experiment [2] (setting [4]) is 51%.
As for `CSc1nnc(-c2ccccn2)c(-c2ccccn2)n1` [Example 12, 3-methylthio-5,6-(2'-pyridyl)-1,2,4-triazine], the responders at 100 mg/kg in experiment [1] (0.5 h, 100 mg/kg oral, 30 Min.) was 10%; in experiment [1] (1 h, 100 mg/kg oral, 60 Min) it was 20%. Moreover, the inhibition in vivo at 200 mg/kg in experiment [2] (setting [4]) worked out at 19%.
For the compound `CSc1nncc(-c2ccccc2)n1` [Example 1, 3-methylthio-5-phenyl-1,2,4-triazine], the responders at 50 mg/kg in experiment [1] (0.25 h, 50 mg/kg oral, 15 Min.) turned out to be 10%. Besides, the responders at 100 mg/kg in experiment [1] (0.5 h, 100 mg/kg oral, 30 Min.) amounted to 10%. In experiment [2] (setting [5]), the inhibition in vivo at 175 mg/kg was found to be 27%.
On to `CN(CCO)c1nnc(-c2ccccc2)c(-c2ccccc2)n1` [Example 55, 3-(N-methyl-N-B-hydroxyethylamino)-5,6-diphenyl-1,2,4-triazine], for which the responders at 100 mg/kg in experiment [1] (setting [3]) was 20%. Moreover, in experiment [2] (setting [4]), the inhibition in vivo at 200 mg/kg is 23%.
On to `CSc1nnc(C)c(C)n1` [Example 10, 3-methylthio-5,6-dimethyl-1,2,4-triazine], for which the responders at 100 mg/kg in experiment [1] (0.5 h, 100 mg/kg oral, 30 Min.) was 70%; in experiment [1] (1 h, 100 mg/kg oral, 60 Min) it was 20%. Also, the inhibition in vivo at 70 mg/kg in experiment [2] (Rattus norvegicus, 70 mg/kg oral, read-out: % Reduction of Edema) worked out at 54%.
For the compound `CSc1nncc(-c2ccc(F)cc2F)n1` [Example 42, 3-methylthio-5-(2',4'-difluorophenyl)-1,2,4-triazine], the responders at 100 mg/kg in experiment [1] (setting [3]) is 20%; in experiment [1] (0.5 h, 100 mg/kg oral, 30 Min.), 10%. Moreover, the inhibition in vivo at 150 mg/kg in experiment [2] (Rattus norvegicus, 150 mg/kg oral, read-out: % Reduction of Edema) is 10%.
On to `COc1ccc(-c2nnc(N(C)CCO)nc2-c2ccc(OC)cc2)cc1` [Example 50, 3-(N-methyl-N-(B-hydroxyethyl)amino)-5,6-bis-(4'-methoxyphenyl)-1,2,4-triazine], for which the responders at 25 mg/kg turned out to be 30% in experiment [1] (0.25 h, 25 mg/kg oral, 15 Min.); 40% in experiment [1] (0.5 h, 25 mg/kg oral, 30 Min.); 20% in experiment [1] (1 h, 25 mg/kg oral, 60 Min). The responders at 50 mg/kg in experiment [1] (0.25 h, 50 mg/kg oral, 15 Min.) stood at 60%; in experiment [1] (0.5 h, 50 mg/kg oral, 30 Min.) it was 50%; in experiment [1] (1 h, 50 mg/kg oral, 60 Min), 40%. Moreover, the responders at 100 mg/kg turned out to be 70% in experiment [1] (setting [3]); 100% in experiment [1] (0.5 h, 100 mg/kg oral, 30 Min.); 80% in experiment [1] (1 h, 100 mg/kg oral, 60 Min). Further, the inhibition in vivo at 200 mg/kg in experiment [2] (setting [4]) was found to be 67%.
Turning to `CSc1nncc(C23CC4CC(CC(C4)C2)C3)n1` [Example 34, 3-methylthio-5-(1'-adamantyl)-1,2,4-triazine], the responders at 100 mg/kg was 30% in experiment [1] (setting [3]) and 10% in experiment [1] (0.5 h, 100 mg/kg oral, 30 Min.). For the same compound, the inhibition in vivo at 200 mg/kg in experiment [2] (setting [4]) worked out at 17%.
As to `CSc1nnc(-c2ccc(Cl)cc2)c(-c2ccc(Cl)cc2)n1` [Example 54, 3-methylthio-5,6-bis(4'-chlorophenyl)-1,2,4-triazine], the responders at 100 mg/kg in experiment [1] (setting [3]) came to 10%. In experiment [2] (setting [4]), the inhibition in vivo at 200 mg/kg was 7%.
Turning to `CSc1nncc(-c2cc3ccccc3o2)n1` [Example 35, 3-methylthio-5-(2'-benzofuryl)-1,2,4-triazine], the responders at 100 mg/kg in experiment [1] (setting [3]) is 10%; in experiment [1] (0.5 h, 100 mg/kg oral, 30 Min.) it was 10%; in experiment [1] (1 h, 100 mg/kg oral, 60 Min), 10%. For the same compound, in experiment [2] (setting [4]), the inhibition in vivo at 200 mg/kg was found to be 2%.
With `CSc1nncc(-c2ccc(Br)cc2)n1` [Example 43, 3-methylthio-5-(4'-bromophenyl)-1,2,4-triazine], the responders at 100 mg/kg in experiment [1] (setting [3]) turned out to be 10%; in experiment [1] (0.5 h, 100 mg/kg oral, 30 Min.), 10%; in experiment [1] (1 h, 100 mg/kg oral, 60 Min), 10%. Besides, in experiment [2] (setting [4]), the inhibition in vivo at 200 mg/kg is 20%.
Take `COc1ccc(-c2cnnc(SC)n2)cc1` [Example 44, 3-methylthio-5-(4'-methoxyphenyl)-1,2,4-triazine]: the responders at 100 mg/kg in experiment [1] (setting [3]) came to 10%; in experiment [1] (0.5 h, 100 mg/kg oral, 30 Min.), 10%; in experiment [1] (1 h, 100 mg/kg oral, 60 Min), 20%. Further, the inhibition in vivo at 200 mg/kg in experiment [2] (setting [4]) turned out to be 18%.
Regarding `COc1nncc(-c2ccco2)n1` [Example 20, 3-methoxy-5-(2'-furyl)-1,2,4-triazine], the responders at 30 mg/kg in experiment [1] (0.5 h, 30 Min.) worked out at 10%. Further, the inhibition in vivo at 175 mg/kg in experiment [2] (setting [5]) came out at 70%.
For the compound `CSc1nncc(-c2c(C)cc(C)cc2C)n1` [Example 39, 3-methylthio-5-(2',4',6'-trimethylphenyl)-1,2,4-triazine], the responders at 100 mg/kg in experiment [1] (setting [3]) came out at 10%; in experiment [1] (1 h, 100 mg/kg oral, 60 Min), 10%. The inhibition in vivo at 200 mg/kg in experiment [2] (setting [4]) amounted to 7%.
In the case of `COc1nncc(-c2ccc(OC)c(OC)c2)n1` [Example 38, 3-methoxy-5-(3',4'-dimethoxyphenyl)-1,2,4-triazine], the responders at 100 mg/kg was determined as 20% in experiment [1] (0.5 h, 100 mg/kg oral, 30 Min.) and 10% in experiment [1] (1 h, 100 mg/kg oral, 60 Min). Besides, the inhibition in vivo at 200 mg/kg in experiment [2] (setting [4]) came out at 52%.
Take `COc1nncc(-c2cccc3ccccc23)n1` [Example 29, 3-methoxy-5-(1'-naphthyl)-1,2,4-triazine]: the responders at 30 mg/kg in experiment [1] (0.25 h, 15 Min.) came out at 10%. In addition, in experiment [1] (setting [3]), the responders at 100 mg/kg was 10%. For the same compound, in experiment [1] (0.5 h, 50 mg/kg oral, 30 Min.), the responders at 50 mg/kg came out at 10%. The inhibition in vivo at 200 mg/kg in experiment [2] (setting [4]) was determined as 22%.
Take “3-methoxy-5,6-di(4'-methylphenoxy)-1,2,4-triazine [Example 26]”: the “Phenylquinone Writhing Assay (% Control), percent analgesia” value stood at 10% in experiment [1] (25 mg/kg oral, 15 Min.); 10% in experiment [1] (25 mg/kg oral, 30 Min.); 10% in experiment [1] (25 mg/kg oral, 60 Min); 40% in experiment [1] (50 mg/kg oral, 15 Min.); 10% in experiment [1] (50 mg/kg oral, 30 Min.); 20% in experiment [1] (50 mg/kg oral, 60 Min). Further, the “Phenylquinone Writhing Assay (% Control), percent analgesia” value in experiment [1] (100 mg/kg oral, 15 Min.) is 20%; in experiment [1] (100 mg/kg oral, 30 Min.), 50%; in experiment [1] (100 mg/kg oral, 60 Min), 50%. Besides, the “% Reduction of Edema” value in experiment [2] (200 mg/kg oral) was 12%.
On to `Cc1nnc(OC(C)C)nc1C` [Example 24, 3-isopropoxy-5,6-dimethyl-1,2,4-triazine], for which, in experiment [1] (0.5 h, 30 Min.), the responders at 70 mg/kg was determined as 10%. In addition, the inhibition in vivo at 200 mg/kg in experiment [2] (setting [4]) amounted to 37%.
Take `COc1nncc(-c2cccc(C(F)(F)F)c2)n1` [Example 8, 3-methoxy-5-(3'-trifluoromethylphenyl)-1,2,4-triazine]: the responders at 70 mg/kg in experiment [1] (0.5 h, 30 Min.) worked out at 10%. Also, the inhibition in vivo at 100 mg/kg in experiment [2] (setting [5]) came out at 77%.

Source of the values: US4157392A, “Pharmacologically active substituted 1,2,4-triazines” (Diamond Shamrock Corporation, priority 1978, dated 1979).
